The target in the test is T1, human Npt2a (Homo sapiens, UniProt Q06495).
T1 construct: expressed in transfected cells
T1 sequence (Q06495 1-639): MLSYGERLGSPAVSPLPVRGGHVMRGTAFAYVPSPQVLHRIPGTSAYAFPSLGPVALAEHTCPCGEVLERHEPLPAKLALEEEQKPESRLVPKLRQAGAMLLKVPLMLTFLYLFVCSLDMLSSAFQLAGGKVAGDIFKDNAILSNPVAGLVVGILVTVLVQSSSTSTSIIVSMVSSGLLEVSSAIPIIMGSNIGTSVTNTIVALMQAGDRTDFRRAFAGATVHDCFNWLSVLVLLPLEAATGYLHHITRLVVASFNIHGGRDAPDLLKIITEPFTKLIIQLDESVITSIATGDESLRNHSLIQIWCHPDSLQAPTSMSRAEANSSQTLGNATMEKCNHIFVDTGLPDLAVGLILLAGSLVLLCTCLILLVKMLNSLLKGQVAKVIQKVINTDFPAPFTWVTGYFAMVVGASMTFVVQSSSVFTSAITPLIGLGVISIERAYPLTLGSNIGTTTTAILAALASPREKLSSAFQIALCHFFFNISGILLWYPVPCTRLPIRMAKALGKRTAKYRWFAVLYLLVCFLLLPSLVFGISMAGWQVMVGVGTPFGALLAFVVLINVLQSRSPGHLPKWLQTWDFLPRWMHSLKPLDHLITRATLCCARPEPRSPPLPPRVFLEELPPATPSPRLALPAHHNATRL
Kind of test: Npt2a activity cell based assay, membrane potential dye, CHO T-REx hNpt2a cells. Particulars: doxycycline-induced, depolarization by sodium phosphate influx, average or median values if tested more than once. Summed up: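 Doxycycline-induced (0.5 μg/mL, 24 h) CHO T-REx cells were loaded with membrane potential dye in sodium-free NHE buffer (pH 7.4) and exposed to compound (50 μM–1 nM, 5 min, room temperature).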
As a reminder, the IC50 is the point on the concentration scale where inhibition reaches its midpoint. A low value points to greater potency in that assay. On to `CCOC(=O)c1c(C)nn(-c2cc(Nc3c(C)c(-c4ccc(C(F)(F)F)cc4)nn3C)ncn2)c1C` [Example 362, ethyl 1-[6-({1,4-dimethyl-3-[4-(trifluoromethyl)phenyl]-1H-pyrazol-5-yl}amino)pyrimidin-4-yl]-3,5-dimethyl-1H-pyrazole-4-carboxylate], for which the IC50 worked out at 220 nM.

Turning to `CCOC(=O)c1c(C)nn(-c2cc(Nc3c(C)c(-c4ccc(F)cc4F)nn3C)ncn2)c1C` [Example 363, ethyl 1-(6-{[3-(2,4-difluorophenyl)-1,4-dimethyl-1H-pyrazol-5-yl]amino}pyrimidin-4-yl)-3,5-dimethyl-1H-pyrazole-4-carboxylate], the midpoint of inhibition, the IC50, lay at 150 nM. The value for `CCOC(=O)c1c(C)nn(-c2cc(Nc3c(C)c(-c4ccc(F)cc4F)nn3CC3CC3)ncn2)c1C` [Example 364, ethyl 1-(6-{[1-(cyclopropylmethyl)-3-(2,4-difluorophenyl)-4-methyl-1H-pyrazol-5-yl]amino}pyrimidin-4-yl)-3,5-dimethyl-1H-pyrazole-4-carboxylate] was 5 nM; that for `Cc1nn(-c2cc(Nc3c(C)c(-c4ccc(C#N)cc4)nn3CC3CC3)ncn2)c2c1C(=O)CC2` [Example 365, 4-[1-(cyclopropylmethyl)-4-methyl-5-{[6-(3-methyl-4-oxo-5,6-dihydrocyclopenta[c]pyrazol-1(4H)-yl)pyrimidin-4-yl]amino}-1H-pyrazol-3-yl]benzonitrile] was 61 nM. The value for `Cc1nn(-c2ccc(C#N)cc2)c(C)c1Nc1cc(-n2nc(C)c(C(C)(C)O)c2C)ncn1` [Example 366, 4-[4-({6-[4-(2-hydroxypropan-2-yl)-3,5-dimethyl-1H-pyrazol-1-yl]pyrimidin-4-yl}amino)-3,5-dimethyl-1H-pyrazol-1-yl]benzonitrile] was 150 nM; that for `CCOC(=O)c1c(C)nn(-c2cc(Nc3c(C)c(-c4ccc(Cl)cc4)nn3C)ncn2)c1C` [Example 367, ethyl 1-(6-{[3-(4-chlorophenyl)-1,4-dimethyl-1H-pyrazol-5-yl]amino}pyrimidin-4-yl)-3,5-dimethyl-1H-pyrazole-4-carboxylate] was 40 nM; that for `Cc1nn(-c2cc(Nc3c(C)c(-c4ccc(F)cc4F)nn3CC3CC3)ncn2)c(C)c1C(C)(C)O` [Example 368, 2-[1-(6-{[1-(cyclopropylmethyl)-3-(2,4-difluorophenyl)-4-methyl-1H-pyrazol-5-yl]amino}pyrimidin-4-yl)-3,5-dimethyl-1H-pyrazol-4-yl]propan-2-ol] was 7 nM.

Take `Cc1nnc(-c2c(C)nn(-c3cc(Nc4c(C)c(-c5ccc(F)cc5)nn4CC4CC4)ncn3)c2C)o1` [Example 372, N-[1-(cyclopropylmethyl)-3-(4-fluorophenyl)-4-methyl-1H-pyrazol-5-yl]-6-[3,5-dimethyl-4-(5-methyl-1,3,4-oxadiazol-2-yl)-1H-pyrazol-1-yl]pyrimidin-4-amine]: 7 nM corresponded to half-maximal inhibition (IC50). For the compound `Cc1nn(-c2cc(Nc3c(C)c(-c4ccc(C#N)cc4)nn3CC3CC3)ncn2)c(C)c1C(F)(F)F` [Example 373, 4-[1-(cyclopropylmethyl)-5-({6-[3,5-dimethyl-4-(trifluoromethyl)-1H-pyrazol-1-yl]pyrimidin-4-yl}amino)-4-methyl-1H-pyrazol-3-yl]benzonitrile], half-maximal inhibition (IC50) required 5 nM. The value for `Cc1nn(-c2cc(Nc3c(C)c(-c4ccc(OC(F)(F)F)cc4)nn3C)ncn2)c(C)c1C(C)(C)O` [Example 377, 2-{1-[6-({1,4-dimethyl-3-[4-(trifluoromethoxy)phenyl]-1H-pyrazol-5-yl}amino)pyrimidin-4-yl]-3,5-dimethyl-1H-pyrazol-4-yl}propan-2-ol] was 205 nM; that for `Cc1nn(-c2cc(Nc3c(C)c(-c4ccc(F)cc4F)nn3C)ncn2)c(C)c1C(C)(C)O` [Example 378, 2-[1-(6-{[3-(2,4-difluorophenyl)-1,4-dimethyl-1H-pyrazol-5-yl]amino}pyrimidin-4-yl)-3,5-dimethyl-1H-pyrazol-4-yl]propan-2-ol] was 2550 nM; that for `Cc1nn(-c2cc(Nc3c(C)c(-c4ccc(C(F)(F)F)cc4)nn3C)ncn2)c(C)c1C(C)(C)O` [Example 379, 2-{1-[6-({1,4-dimethyl-3-[4-(trifluoromethyl)phenyl]-1H-pyrazol-5-yl}amino)pyrimidin-4-yl]-3,5-dimethyl-1H-pyrazol-4-yl}propan-2-ol] was 880 nM. With `Cc1nn(-c2cc(Nc3c(C)c(-c4ccncc4)nn3CC3CC3)ncn2)c(C)c1C(C)(C)O` [Example 380, 2-[1-(6-{[1-(cyclopropylmethyl)-4-methyl-3-(pyridin-4-yl)-1H-pyrazol-5-yl]amino}pyrimidin-4-yl)-3,5-dimethyl-1H-pyrazol-4-yl]propan-2-ol], the IC50 turned out to be 170 nM. As to `Cc1nn(-c2cc(Nc3c(C)c(-c4ccc(F)cc4)nn3CC3CC3)ncn2)c(C)c1C(F)(F)F` [Example 381, N-[1-(cyclopropylmethyl)-3-(4-fluorophenyl)-4-methyl-1H-pyrazol-5-yl]-6-[3,5-dimethyl-4-(trifluoromethyl)-1H-pyrazol-1-yl]pyrimidin-4-amine], the concentration for half-maximal inhibition (IC50) is 8 nM.

In turn, `Cc1nn(-c2cc(Nc3c(C)c(-c4ccc(F)cc4)nn3C)ncn2)c(C)c1C(F)(F)F` [Example 382, 6-[3,5-dimethyl-4-(trifluoromethyl)-1H-pyrazol-1-yl]-N-[3-(4-fluorophenyl)-1,4-dimethyl-1H-pyrazol-5-yl]pyrimidin-4-amine] came in with an IC50 of 35 nM.

For the compound `Cc1nn(-c2cc(Nc3nn(C)c(-c4ccc(F)cc4)c3C)ncn2)c(C)c1C(F)(F)F` [Example 383, 6-[3,5-dimethyl-4-(trifluoromethyl)-1H-pyrazol-1-yl]-N-[5-(4-fluorophenyl)-1,4-dimethyl-1H-pyrazol-3-yl]pyrimidin-4-amine], the midpoint of inhibition, the IC50, lay at 5 nM. In turn, `Cc1nn(-c2cc(Nc3c(C)c(-c4ccncc4)nn3CC3CC3)ncn2)c(C)c1C(F)(F)F` [Example 384, N-[1-(cyclopropylmethyl)-4-methyl-3-(pyridin-4-yl)-1H-pyrazol-5-yl]-6-[3,5-dimethyl-4-(trifluoromethyl)-1H-pyrazol-1-yl]pyrimidin-4-amine] yielded an IC50 of 30 nM. Then `COc1c(C)nn(-c2cc(Nc3c(C)c(-c4ccc(F)cc4)nn3CC3CC3)ncn2)c1C` [Example 385, N-[1-(cyclopropylmethyl)-3-(4-fluorophenyl)-4-methyl-1H-pyrazol-5-yl]-6-(4-methoxy-3,5-dimethyl-1H-pyrazol-1-yl)pyrimidin-4-amine], with 4 nM; and `CCc1c(-c2ccc(F)cc2)nn(Cc2nnn(C)n2)c1Nc1cc(-n2nc(C)cc2C)ncn1` [Example 388, 6-(3,5-dimethyl-1H-pyrazol-1-yl)-N-{4-ethyl-3-(4-fluorophenyl)-1-[(2-methyl-2H-tetrazol-5-yl)methyl]-1H-pyrazol-5-yl}pyrimidin-4-amine], with 64 nM; and `Cc1ccc(-c2nn(CC3CC3)c(Nc3cc(-n4nc(C)c(C(C)(C)O)c4C)ncn3)c2C)cc1` [Example 389, 2-[1-(6-{[1-(cyclopropylmethyl)-4-methyl-3-(4-methylphenyl)-1H-pyrazol-5-yl]amino}pyrimidin-4-yl)-3,5-dimethyl-1H-pyrazol-4-yl]propan-2-ol], with 130 nM. The value for `Cc1nn(-c2cc(Nc3c(C)c(-c4ccc(F)cc4)nn3CC3CC3)ncn2)c(C)c1CN1CC(F)(F)C1` [Example 390, N-[1-(cyclopropylmethyl)-3-(4-fluorophenyl)-4-methyl-1H-pyrazol-5-yl]-6-{4-[(3,3-difluoroazetidin-1-yl)methyl]-3,5-dimethyl-1H-pyrazol-1-yl}pyrimidin-4-amine] was 25 nM. The value for `CCc1c(-c2ccc(F)cc2)nn(Cc2nnnn2C)c1Nc1cc(-n2nc(C)cc2C)ncn1` [Example 391, 6-(3,5-dimethyl-1H-pyrazol-1-yl)-N-{4-ethyl-3-(4-fluorophenyl)-1-[(1-methyl-1H-tetrazol-5-yl)methyl]-1H-pyrazol-5-yl}pyrimidin-4-amine] was 13 nM. In the case of `Cc1nn(-c2cc(Nc3c(C)nn(-c4ccc(F)cc4)c3C)ncn2)c(C)c1CC(C)(C)O` [Example 393, 1-[1-(6-{[1-(4-fluorophenyl)-3,5-dimethyl-1H-pyrazol-4-yl]amino}pyrimidin-4-yl)-3,5-dimethyl-1H-pyrazol-4-yl]-2-methylpropan-2-ol], 180 nM corresponded to half-maximal inhibition (IC50). As to `Cc1nn(-c2cc(Nc3c(C)c(-c4ccc(F)cc4)nn3CC3CC3)ncn2)c2c1C(=O)CC2` [Example 394, 1-(6-{[1-(cyclopropylmethyl)-3-(4-fluorophenyl)-4-methyl-1H-pyrazol-5-yl]amino}pyrimidin-4-yl)-3-methyl-5,6-dihydrocyclopenta[c]pyrazol-4(1H)-one], inhibition was half-maximal at 71 nM (IC50). The value for `Cc1c(-c2ccc(F)cc2)nn(CC2CC2)c1Nc1cc(-n2nc3c(c2C)C(=O)CC3)ncn1` [Example 395, 2-(6-{[1-(cyclopropylmethyl)-3-(4-fluorophenyl)-4-methyl-1H-pyrazol-5-yl]amino}pyrimidin-4-yl)-3-methyl-5,6-dihydrocyclopenta[c]pyrazol-4(2H)-one] was 19 nM.

The values are drawn from patent publication US11208400B2, “Substituted 6-(1H-pyrazol-1-yl)pyrimidin-4-amine derivatives and uses thereof” (Bayer Aktiengesellschaft, priority 2016, dated 2021).
